Measurements reported in US20100210649A1, “PYRIDAZINONES AND FURAN-CONTAINING COMPOUNDS” (Sloan-Kettering Institute for Cancer Research, priority 2006, published 2010).
Like-named read-outs stand apart in the source and are kept apart here.

How the values were obtained:
H1650 = assay: Non Small Cell Lung Cancer proliferation assay (Alamar Blue reduction), H1650; format: cell-based, human
Summary of the method: (§1)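 Human NSCLC cells were seeded at 250 cells/well with compound at a final 1% DMSO and treated for 48 hours at 37° C. 1% DMSO served as the high control.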

H1975 = assay: Non Small Cell Lung Cancer proliferation assay (Alamar Blue reduction), H1975; format: cell-based, human
Summary of the method: as §1

H2030 = assay: Non Small Cell Lung Cancer proliferation assay (Alamar Blue reduction), H2030; format: cell-based, human
Summary of the method: as §1

H358 = assay: Non Small Cell Lung Cancer proliferation assay (Alamar Blue reduction), H358; format: cell-based; details: Homo sapiens, NCI-H358
Experimental: These cells have a doubling time of 1-2 days. All cell types are adherent and grow in colonies. The cells should be kept at a density between 50,000 cells/mL -500,000 cells/mL to provide for optimum growth and adequate nutrition. The cell line should be maintained at 37° C. in a humidified atmosphere with 5% CO2 in a sterile cell culture incubator.
Non Small Cell Lung Cancer Proliferation Assay.
High Controls for this assay are made by treating Non Small Cell Lung Cancer cells with 5 ul of 10% DMSO. [Final concentration in this assay is 1% DMSO].
Important Note: All compounds for testing in this assay should be done at the final concentration of 1% DMSO.
After addition, the cells are placed in cell culture incubator at 37° C. for 48 hours for complete treatment.
After drug treatment, cytotoxicity is measured by Alamar Blue reduction.
The cells are incubated for 48 hours at 37° C. to complete the Alamar Blue reduction.
The final step in the assay is to measure the amount of Alamar Blue reduction. […] The Alamar Blue fluorescence is measured at an excitation of 530 nm and emission of 590 nm.
For the NSCLC project, the cell based assay was screened against a small molecule library of approximately 200,000 compounds. The compound library is stored in our automated robotic freezer (Biophile) at −20° C. in 100% DMSO. Compound freeze and thaw cycles are kept to a minimum. […] This assay was performed on a fully automated linear track robotic platform (CRS F3 Robot System, Thermo Electron Corp., Ontario, Canada) utilizing several integrated peripherals for plate handling, liquid dispensing, and readout detection. […] The microplates are then placed at 37° C. for 48 hours to complete treatment of cells with compounds. Next, 5 ul of alamar blue was added using a liquid dispenser (Flexprop Precision Dispenser, Perkin Elmer, Mass., USA) and incubated for 48 hours at 37° C. The alamar blue prompt fluorescence was measured on Victor V (Victor^3 V, Perkin Elmer, Mass., USA) and output data files were loaded into ORIS (Oncology Research Informatics System, MSKCC, NY, USA), a screening data acquisition and analysis platform.
(§2) The dose response studies were done with the following standard procedure. First, the cells were counted and dispensed at 250 cells/well into 384-well microplates with compound. The cells were incubated for 48 hours at 37 C to complete treatment, and then alamar blue was added for an additional 48 hours. Finally, alamar blue reduction was measured and the data was loaded into ORIS, our data screening acquisition platform.

in vitro = details: human
Experimental: NHBE (normal human bronchiolar epithelial cells) are primary cells obtained from donor lungs and commercially available from Cambrex. The HPL1D (human peripheral lung epithelial) cell line has been immortalized with the SV40 large T-antigen. WI-38: human lung fibroblast cell line. HPLID, NHBE and WI-38 cells will serve as controls in the chemical screens. WT: wildtype; WT*: over-expressed wildtype.
Compounds were tested in dose response studies from […] to 5 nM against several non small cell lung cancer lines: H358, H827, H1118, H1650, H1734, H1975, H2030, and H3255, and were also studied in a 72 hour cytotoxicity assay against the NHBE and WI-38 cell lines.

H820 = assay: Dose response study (Alamar Blue), H820; format: cell-based; details: Homo sapiens, NCI-H820; H820; 12 point doubling dilution 10 uM to 5 nM; 48 h treatment, alamar blue additional 48 h; read-out: IC50 H820
Experimental: (§3) Dose response studies against 34 compounds from the pyridazinone and phenylfuran-carboxamide class were conducted. […] In addition, Tarceva was included in these dose response studies.
as §2

A549 = assay: Dose response study (Alamar Blue), A549; format: cell-based; details: Homo sapiens; A549; 12 point doubling dilution 10 uM to 5 nM; 48 h treatment, alamar blue additional 48 h; read-out: IC50 A549
Experimental: as §3, §2

H23 = assay: Dose response study (Alamar Blue), H23; format: cell-based; details: Homo sapiens, NCI-H23; H23; 12 point doubling dilution 10 uM to 5 nM; 48 h treatment, alamar blue additional 48 h; read-out: IC50 H23
Experimental: as §3, §2

H2122 = assay: Dose response study (Alamar Blue), H2122; format: cell-based; details: Homo sapiens, NCI-H2122; H2122; 12 point doubling dilution 10 uM to 5 nM; 48 h treatment, alamar blue additional 48 h; read-out: IC50 H2122
Experimental: as §3, §2

H2444 = assay: Dose response study (Alamar Blue), H2444; format: cell-based; details: Homo sapiens, NCI-H2444; H2444; 12 point doubling dilution 10 uM to 5 nM; 48 h treatment, alamar blue additional 48 h; read-out: IC50 H2444
Experimental: as §3, §2

[1] = Homo sapiens, NCI-H1650, 48 h, H1650, 12 point doubling dilution 10 uM to 5 nM, 48 h treatment, alamar blue additional 48 h, read-out: IC50 H1650
[2] = Homo sapiens, NCI-H1650, dose response 10 M to 5 nM, IC50, read-out: Dose Response (uM) H1650
[3] = Homo sapiens, NCI-H1975, 48 h, H1975, 12 point doubling dilution 10 uM to 5 nM, 48 h treatment, alamar blue additional 48 h, read-out: IC50 H1975
[4] = Homo sapiens, NCI-H1975, dose response 10 M to 5 nM, IC50, read-out: Dose Response (uM) H1975
[5] = Homo sapiens, NCI-H2030, 48 h, H2030, 12 point doubling dilution 10 uM to 5 nM, 48 h treatment, alamar blue additional 48 h, read-out: IC50 H2030
[6] = Homo sapiens, NCI-H2030, dose response 10 M to 5 nM, IC50, read-out: Dose Response (uM) H2030
[7] = H358, 12 point doubling dilution 10 uM to 5 nM, 48 h treatment, alamar blue additional 48 h, read-out: IC50 H358
[8] = read-out: Dose Response (uM) H358
[9] = percentage inhibition, 10 μM compound in 1% DMSO (v/v)

Row | IC50 (H1650; [1]) | IC50 (H1650; [2]) | IC50 (H1975; [3]) | IC50 (H1975; [4]) | IC50 (H2030; [5]) | IC50 (H2030; [6]) | IC50 (H358; [7]) | IC50 (H358; [8]) | IC50 (H820) | IC50 (A549) | IC50 (H2122) | IC50 (H2444) | Structure (SMILES) | IC50 at 72 h (in vitro; CytoTox (uM) NHBE) | IC50 at 72 h (in vitro; CytoTox (uM) WI-38) | IC50 (H23) | also measured
1 | 1.42 µM | 1.29 µM | 0.16 µM | 0.2 µM | 0.17 µM | 0.41 µM | 0.21 µM | 0.06 µM | 0.14 µM | 0.54 µM | 0.89 µM | 0.22 µM | O=c1c(Cl)c(Cl)cnn1-c1ccccn1 [compound 267090] | 1.43 µM | 1.19 µM | 0.08 µM | 
2 | 1.69 µM | 2.42 µM | 0.54 µM | 0.35 µM | 0.9 µM | 0.89 µM | 1.13 µM | 0.55 µM | 0.34 µM | 2.27 µM | 2.16 µM | 0.85 µM | Cc1cccc(-n2ncc(Cl)c(Cl)c2=O)c1C [compound 257018] | 3.89 µM | 7.35 µM | 0.24 µM | 
3 | > 10 µM | 5.82 µM | 6.57 µM | 1.93 µM | 6.43 µM | 2.75 µM | 6.66 µM | 0.76 µM | 6.24 µM | > 10 µM | > 10 µM |  | CCCCc1cccc(-n2ncc(Cl)c(Cl)c2=O)c1 [compound 267063] | 5.34 µM | > 10 µM | 5.47 µM | 
4 | 7.49 µM |  | > 10 µM |  | 8.51 µM |  | 7.17 µM |  | > 10 µM | > 10 µM | > 10 µM | > 10 µM | O=C(Nc1ccc(F)c(Cl)c1)c1ccc([N+](=O)[O-])o1 [compound 87200] |  |  | 4.55 µM | IC50 (H1650; Homo sapiens, NCI-H1650, phenylfuran-2-carboxamide SAR summary, read-out: IC50(uM) 1650): 0.29 µM; inhibition at 10 µM (H1650; Homo sapiens, NCI-H1650, primary screening, H1650, 10 μM compound in 1% DMSO (v/v), read-out: PRIMARY HTS [%] H1650 (percentage inhibition)): 103%; CONFIRMATION [%] 1650 (H1650; [9]): 112%; IC50 (H1975; Homo sapiens, NCI-H1975, phenylfuran-2-carboxamide SAR summary, read-out: IC50(uM) 1975): 0.44 µM; inhibition at 10 µM (H1975; Homo sapiens, NCI-H1975, primary screening, H1975, 10 μM compound in 1% DMSO (v/v), read-out: PRIMARY HTS [%] H1975 (percentage inhibition)): 67%; CONFIRMATION [%] 1975 (H1975; [9]): 95%; IC50 (H2030; Homo sapiens, NCI-H2030, phenylfuran-2-carboxamide SAR summary, read-out: IC50(uM) 2030): 1.01 µM; inhibition at 10 µM (H2030; Homo sapiens, NCI-H2030, primary screening, H2030, 10 μM compound in 1% DMSO (v/v), read-out: PRIMARY HTS [%] H2030 (percentage inhibition)): 23%; CONFIRMATION [%] 2030 (H2030; [9]): 107%
